Patent US5594004A, “Compound with platelet aggregation inhibitor activity” (Meiji Seika Kabushiki Kaisha, priority 1993, dated 1997)
Counter-ions that a name gives are not always drawn.

What follows are molecules tested on human PRP (platelet rich plasma) (assay: Pharmacological test 1: inhibition of ADP-induced platelet aggregation in human PRP). Details: Homo sapiens, Platelet, platelet aggregation, ADP 5 μM inducer.
Type: cell-based
Procedure: Pharmacological test 1 Inhibition of platelet aggregation
The effect of the compound according to the present invention on inhibiting the platelet aggregation was examined with human PRP (platelet rich plasma).
Nine volumes of a blood sample was taken out of the vein of a normal human with a syringe in which one volume of a 3.8% sodium citrate solution was charged. The blood sample was centrifuged at 170×g at room temperature for 10 minutes. The supernatant thus obtained was isolated as PRP. The residual blood sample that PRP had been taken out was centrifuged at 2,700×g for 15 minutes. The supernatant was then taken as platelet poor plasma (PPP).
Platelet aggregation test was conducted with an aggligometer (PAM-8C; manufactured by MEBANICKS Co., Ltd.). Compounds to be tested were dissolved in a 50% DMSO saline, a 50% methanol saline or physiological saline. The compound and PRP were preincubated for 2 minutes. The ADP (CHRONO-PAR REAGENTS 384 ADP, CHRONO-LOG Corp.) was used as an inducer in the form of a dilution with saline so that the final concentration is 5 μM.
Anti-platelet aggregation activity was obtained as an inhibition rate to platelet aggregation effect of ADP in the absence of a compound to be tested as follows: [formula] Physiological test 2 Inhibition of fibrinogen bonding to platelet GPIIb/IIIa

Structure (SMILES) | IC50 [µM]
O=C(O)COc1ccc(C(=O)CNC(=O)c2cc3c(s2)CCNCC3)cc1OCC(=O)O [Example 31, [[4-[[[(5,6,7,8-tetrahydro-4H-thieno[2,3-d]azepin-2-yl)carbonyl]amino]acetyl]-o-phenylene]dioxy]diacetic acid trifluoroacetate] | 0.15
O=C(O)CCc1ccc(C(=O)CNC(=O)CCC2CCNCC2)cc1 [Example 38, 3-[4-[N-[3-(piperidin-4-yl)propionyl]amino]acetyl]phenylpropionic acid trifluoroacetate] | 8
O=C(O)COc1ccc(C(=O)CNC(=O)c2cc3c(s2)CCNC3)nc1 [Example 44, 2-[[4,5,6,7-tetrahydrothieno[3,2-c]pyridin-2-yl)carbonylamino]acetyl]pyridin-5-yloxyacetic acid trifluoroacetate] | 0.72
CN(CC(=O)c1ccc(OCC(=O)O)c(OCC(=O)O)c1)C(=O)CC1CCNCC1 [Example 37, [[4-[[N-[2-(piperidin-4-yl)acetyl]-N-methylamino]acetyl]-o-phenylene]dioxy]diacetic acid trifluoroacetate] | 4.9
COc1cc(C(=O)CNC(=O)c2cc3c(s2)CCNC3)ccc1OCC(=O)O [Example 26, 4-[[4,5,6,7-tetrahydrothieno[3.2-c]pyridin-2-yl)carbonyl]aminoacetyl]-2-methoxyphenoxyacetic acid trifluoroacetate] | 1
O=C(O)COc1ccc(C(=O)CNC(=O)c2sc3c(c2Cc2ccccc2)CNCC3)cc1OCC(=O)O [Example 28, [[4-[[[(3-benzyl-4,5,6,7-tetrahydrothieno[3.2-c]pyridin-2-yl)carbonyl]amino]acetyl]-o-phenylene]dioxy]diacetic acid trifluoroacetate] | > 10
O=C(O)COc1ccc(C(=O)CNC(=O)c2cc3c(s2)CCCNC3)cc1OCC(=O)O [Example 30, [[4-[[[(5,6,7,8-tetrahydro-4H-thieno[3.2-c]azepin-2-yl)carbonyl]amino]acetyl]-o-phenylene]dioxy]diacetic acid trifluoroacetate] | 1.9
CCCCOC(=O)COc1ccc(C(=O)CNC(=O)c2cc3c(s2)CCNC3)cc1OCC(=O)OCCCC [Example 56, Di-n-butyl [[4-[[[(4,5,6,7-tetrahydrothieno [3,2-c]pyridin-2-yl)carbonyl]amino]acetyl]-o-phenylene]dioxy]diacetate trifluoroacetate] | 1.1
O=C(O)COc1ccc(C(O)CNC(=O)c2cc3c(s2)CCNC3)cc1OCC(=O)O (stereo not shown) [Example 45, [[4-[[2-[(4,5,6,7-tetrahydrothieno[3,2-c]pyridin-2-yl)carbonyl]amino]-1-hydroxyethyl]-o-phenylene]dioxy]diacetic acid trifluoroacetate] | 0.46
O=C(O)COc1ccc(C(=O)CNC(=O)c2cc3c(s2)CCNC3)c(OCC(=O)O)c1 [Example 25, [[4-[[[(4,5,6,7-tetrahydrothieno[3.2-c]pyridin-2-yl)carbonyl]amino]acetyl]-m-phenylene]dioxy]diacetic acid trifluoroacetate] | 1.5
CCOC(=O)COc1ccc(CCNC(=O)c2cc3c(s2)CCNC3)cc1OCC(=O)OCC [Example 33, Diethyl [[4-[[2-[(4,5,6,7-tetrahydrothieno[3,2-c]pyridin-2-yl)carbonyl]amino]ethyl]-o-phenylene]dioxy]diacetate trifluoroacetate] | 1.7
O=C(O)COc1ccc(CCNCc2cc3c(s2)CCNC3)cc1OCC(=O)O [Example 40, [[4-[2-[N-[(4,5,6,7-tetrahydrothieno[3,2-c]pyridin-2-yl)methyl]amino]ethyl]-o-phenylene]dioxy]diacetic acid trifluoroacetate] | 4
Cc1oc(=O)oc1COC(=O)COc1ccc(C(=O)CNC(=O)c2cc3c(s2)CCNC3)cc1OCC(=O)OCc1oc(=O)oc1C [Example 42, Di-(5-methyl-2-oxodioxol-4-yl)methyl [[4-[[(4,5,6,7-tetrahydrothieno[3,2-c]pyridin-2-yl)-carbonyl]amino]acetyl]-o-phenylene]dioxy]diacetic acid trifluoroacetate] | 0.34
